Measured values: ChEMBL document CHEMBL1201862, “PubChem BioAssay data set” (2004)
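Protocol summary: plate cells (96-well), add compound at 5 concentrations, incubate 48 h, interpolate endpoints linearly. GI50 = concentration required for 50% inhibition of growth.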 Activity calls are given as the source filed them. No stated cut-off is given here; in the data, active = GI50 up to about 1.1 µM and inactive = higher.

Key:
Assay in all cases: growth of human tumour cells (NCI), 48 h
[1] = test system: MDA-MB-231
[2] = test system: SR
[3] = test system: HCT-116
[4] = test system: NCI-H23
[5] = test system: LOX IMVI
[6] = test system: Hs-578T
[7] = test system: BT-549
[8] = test system: CAKI-1
[9] = test system: UO-31
[10] = test system: U-251
[11] = test system: EKVX
[12] = test system: Malme-3M
[13] = test system: MDA-MB-435
[14] = test system: IGROV-1
[15] = test system: OVCAR-4
[16] = test system: SK-MEL-28
[17] = test system: MCF7
[18] = test system: HOP-62
[19] = test system: NCI-H226
[20] = test system: MOLT-4
[21] = test system: DU-145
[22] = test system: HCT-15
[23] = test system: COLO 205
[24] = test system: TK-10
[25] = test system: NCI/ADR-RES
[26] = test system: OVCAR-8
[27] = test system: OVCAR-5
[28] = test system: NCI-H522
[29] = test system: K562
[30] = test system: A549
[31] = test system: UACC-257
[32] = test system: SK-OV-3
[33] = test system: UACC-62
[34] = test system: M14
[35] = test system: 786-0
[36] = test system: OVCAR-3
[37] = test system: SF-539
[38] = test system: NCI-H460
[39] = test system: SK-MEL-5
[40] = test system: SNB-19
[41] = test system: SN12C
[42] = test system: SK-MEL-2
[43] = test system: SF-295
[44] = test system: T47D
[45] = test system: SW-620
[46] = test system: SNB-75
[47] = test system: KM12
[48] = test system: HT-29
[49] = test system: A498
[50] = test system: SF-268
[51] = test system: RPMI-8226
[52] = test system: HOP-92
[53] = test system: ACHN
[54] = test system: CCRF-CEM
[55] = test system: HCC 2998
[56] = test system: HL-60
[57] = test system: PC-3
[58] = test system: RXF 393
[59] = test system: MDA-N

Cc1c(-c2ccccc2)c(-c2ccc(OCCN(C)C)cc2)n2ccccc12
GI50 [1]: 10.9 µM (inactive) | GI50 [2]: 2.43 µM (inactive) | GI50 [3]: 5.61 µM (inactive) | GI50 [4]: 16.6 µM (inactive) | GI50 [5]: 2.23 µM (inactive) | GI50 [6]: 5.41 µM (inactive) | GI50 [7]: 5.65 µM (inactive) | GI50 [8]: 11.2 µM (inactive) | GI50 [9]: 9.48 µM (inactive) | GI50 [10]: 7.76 µM (inactive) | GI50 [11]: 15.3 µM (inactive) | GI50 [12]: 4.38 µM (inactive) | GI50 [13]: 3.79 µM (inactive) | GI50 [14]: 10.1 µM (inactive) | GI50 [15]: 12.4 µM (inactive) | GI50 [16]: 1.79 µM (inactive) | GI50 [17]: 7.62 µM (inactive) | GI50 [18]: 13.1 µM (inactive) | GI50 [19]: 15.2 µM (inactive) | GI50 [20]: 3.48 µM (inactive) | GI50 [21]: 13.3 µM (inactive) | GI50 [22]: 2.55 µM | GI50 [23]: 1.64 µM (inactive) | GI50 [24]: 13.2 µM (inactive) | GI50 [25]: 13.2 µM (inactive) | GI50 [26]: 13.8 µM (inactive) | GI50 [27]: 15 µM (inactive) | GI50 [28]: 9.06 µM (inactive) | GI50 [29]: 1.84 µM (inactive) | GI50 [30]: 13.9 µM (inactive) | GI50 [31]: 2.04 µM (inactive) | GI50 [32]: 15.8 µM (inactive) | GI50 [33]: 1.84 µM (inactive) | GI50 [34]: 1.79 µM (inactive) | GI50 [35]: 7.11 µM (inactive) | GI50 [36]: 12 µM (inactive) | GI50 [37]: 10.5 µM (inactive) | GI50 [38]: 2.51 µM (inactive) | GI50 [39]: 1.87 µM (inactive) | GI50 [40]: 12 µM (inactive) | GI50 [41]: 12.1 µM (inactive) | GI50 [42]: 7.74 µM (inactive) | GI50 [43]: 12.2 µM (inactive) | GI50 [44]: 10.4 µM (inactive) | GI50 [45]: 5.5 µM (inactive) | GI50 [46]: 8.38 µM (inactive) | GI50 [47]: 3.82 µM (inactive) | GI50 [48]: 1.82 µM (inactive) | GI50 [49]: 14.8 µM (inactive) | GI50 [50]: 14.3 µM (inactive) | GI50 [51]: 2.69 µM (inactive) | GI50 [52]: 8.59 µM (inactive) | GI50 [53]: 13.9 µM (inactive) | GI50 [54]: 3.72 µM (inactive) | GI50 [55]: 1.69 µM (inactive) | GI50 [56]: 3.67 µM (inactive) | GI50 [57]: 6.34 µM (inactive) | GI50 [58]: 7.69 µM (inactive) | GI50 [59]: 4.37 µM (inactive)

CCOC(=O)c1cnccc1CC1(C#N)c2ccccc2C=CN1C(=O)c1ccccc1 (configuration not stated)
GI50 [1]: 25.5 µM (inactive) | GI50 [2]: 26.8 µM (inactive) | GI50 [3]: 29.2 µM (inactive) | GI50 [4]: 32.5 µM (inactive) | GI50 [5]: 24.1 µM (inactive) | GI50 [6]: 13 µM (inactive) | GI50 [7]: 51.6 µM (inactive) | GI50 [8]: 27.2 µM (inactive) | GI50 [9]: 27.2 µM (inactive) | GI50 [10]: 37.3 µM (inactive) | GI50 [11]: 36.5 µM (inactive) | GI50 [12]: 6.17 µM (inactive) | GI50 [13]: 35.6 µM (inactive) | GI50 [14]: 17.3 µM (inactive) | GI50 [15]: 21.7 µM (inactive) | GI50 [16]: 58.2 µM (inactive) | GI50 [17]: 39.2 µM (inactive) | GI50 [18]: 53.2 µM (inactive) | GI50 [19]: 43.9 µM (inactive) | GI50 [20]: 15.5 µM (inactive) | GI50 [21]: 35.6 µM (inactive) | GI50 [22]: 31 µM | GI50 [23]: 28.2 µM (inactive) | GI50 [24]: 37.5 µM (inactive) | GI50 [25]: 27.7 µM (inactive) | GI50 [26]: 16.2 µM (inactive) | GI50 [27]: 80.2 µM (inactive) | GI50 [28]: 18.6 µM (inactive) | GI50 [29]: 6.93 µM (inactive) | GI50 [30]: 34.4 µM (inactive) | GI50 [31]: 34.7 µM (inactive) | GI50 [32]: 26.1 µM (inactive) | GI50 [33]: 23.9 µM (inactive) | GI50 [34]: 24.3 µM (inactive) | GI50 [35]: 29.7 µM (inactive) | GI50 [36]: 31.6 µM (inactive) | GI50 [37]: 30.1 µM (inactive) | GI50 [38]: 23.4 µM (inactive) | GI50 [39]: 15.3 µM (inactive) | GI50 [40]: 70 µM (inactive) | GI50 [41]: 29 µM (inactive) | GI50 [42]: 21.6 µM (inactive) | GI50 [43]: 53.6 µM (inactive) | GI50 [44]: 24.4 µM (inactive) | GI50 [45]: 47.3 µM (inactive) | GI50 [46]: 12.9 µM (inactive) | GI50 [47]: 13.3 µM (inactive) | GI50 [48]: 12.3 µM (inactive) | GI50 [49]: 96.4 µM (inactive) | GI50 [50]: 23.6 µM (inactive) | GI50 [51]: 4.91 µM (inactive) | GI50 [52]: 37.5 µM (inactive) | GI50 [53]: 39.4 µM (inactive) | GI50 [54]: 40.3 µM (inactive) | GI50 [55]: 30.3 µM (inactive) | GI50 [56]: 18.5 µM (inactive) | GI50 [57]: 20.4 µM (inactive) | GI50 [58]: 64.9 µM (inactive) | GI50 [59]: 18.1 µM (inactive)

Cc1nc(O)nc2nc3ccc(Cl)cc3c(NC(C)(CO)CO)c12
GI50 [1]: 31.6 µM (inactive) | GI50 [2]: 99.8 µM (inactive) | GI50 [3]: 26.7 µM (inactive) | GI50 [4]: 63.5 µM (inactive) | GI50 [5]: 55.6 µM (inactive) | GI50 [6]: 46.9 µM (inactive) | GI50 [7]: 62.8 µM (inactive) | GI50 [8]: 13.9 µM (inactive) | GI50 [9]: 4.49 µM (inactive) | GI50 [10]: 36.8 µM (inactive) | GI50 [11]: 24.9 µM (inactive) | GI50 [12]: > 100 µM (inactive) | GI50 [13]: > 100 µM (inactive) | GI50 [14]: 49.9 µM (inactive) | GI50 [15]: > 57 µM (inactive) | GI50 [16]: > 100 µM (inactive) | GI50 [17]: > 68.4 µM (inactive) | GI50 [18]: 21.2 µM (inactive) | GI50 [19]: > 84.5 µM (inactive) | GI50 [20]: > 40.8 µM (inactive) | GI50 [21]: > 70.1 µM (inactive) | GI50 [22]: 88.3 µM | GI50 [23]: > 100 µM (inactive) | GI50 [24]: 41.4 µM (inactive) | GI50 [25]: > 100 µM (inactive) | GI50 [26]: 72.3 µM (inactive) | GI50 [27]: > 100 µM (inactive) | GI50 [28]: 24.2 µM (inactive) | GI50 [29]: > 100 µM (inactive) | GI50 [30]: > 34.4 µM (inactive) | GI50 [31]: > 75.3 µM (inactive) | GI50 [32]: 36.9 µM (inactive) | GI50 [33]: > 75.3 µM (inactive) | GI50 [34]: > 100 µM (inactive) | GI50 [35]: > 57.4 µM (inactive) | GI50 [36]: > 61.2 µM (inactive) | GI50 [37]: > 50.6 µM (inactive) | GI50 [38]: > 71.1 µM (inactive) | GI50 [39]: > 60 µM (inactive) | GI50 [40]: 45.2 µM (inactive) | GI50 [41]: > 100 µM (inactive) | GI50 [42]: > 100 µM (inactive) | GI50 [43]: 66.5 µM (inactive) | GI50 [44]: 17.6 µM (inactive) | GI50 [45]: > 100 µM (inactive) | GI50 [46]: 24.2 µM (inactive) | GI50 [47]: > 100 µM (inactive) | GI50 [48]: > 100 µM (inactive) | GI50 [49]: > 100 µM (inactive) | GI50 [50]: 40.6 µM (inactive) | GI50 [51]: 30.8 µM (inactive) | GI50 [52]: 74.1 µM (inactive) | GI50 [53]: 39 µM (inactive) | GI50 [54]: > 26.8 µM (inactive) | GI50 [55]: > 100 µM (inactive) | GI50 [56]: > 100 µM (inactive) | GI50 [57]: 57.9 µM (inactive) | GI50 [58]: 20.1 µM (inactive) | GI50 [59]: 99.1 µM (inactive)
